Laboratory results taken from patent US7635696B2, “Isoxazoline-indole derivatives with an improved antipsychotic and anxiolytic activity” (Janssen Pharmaceutica N.V., priority 2004, dated 2009).

Assays:
Human 5HT1A receptor = target: T1, Human 5HT1A receptor (Homo sapiens, UniProt P08908); experiment: Binding experiment for 5-HT1A receptor ([3H]8OHDPAT); conditions: transfected L929 cell membranes, [3H]8OHDPAT; for IC50: read-out: pIC50 5-HT1A (converted)
T1 construct: expressed in transfected cells; host or cells: L929 cells (stably transfected)
T1 sequence (P08908 1-422): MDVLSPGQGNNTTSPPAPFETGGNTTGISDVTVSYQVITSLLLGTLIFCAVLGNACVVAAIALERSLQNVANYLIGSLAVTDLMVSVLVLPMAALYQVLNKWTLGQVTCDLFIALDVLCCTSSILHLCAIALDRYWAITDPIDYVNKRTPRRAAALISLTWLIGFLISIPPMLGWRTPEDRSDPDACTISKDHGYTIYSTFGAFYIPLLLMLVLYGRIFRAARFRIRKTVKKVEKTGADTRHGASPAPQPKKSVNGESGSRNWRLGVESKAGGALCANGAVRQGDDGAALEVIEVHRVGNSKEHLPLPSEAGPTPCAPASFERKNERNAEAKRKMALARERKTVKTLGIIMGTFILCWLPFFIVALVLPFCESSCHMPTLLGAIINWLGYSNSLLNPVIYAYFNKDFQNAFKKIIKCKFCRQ
Method: (§1) The interaction of the compounds of Formula (I) with dopamine-receptors, h5HT-transporter and h5HT1A receptor was assessed in in vitro radioligand binding experiments. In general, a low concentration of a radioligand with a high binding affinity for a particular receptor or transporter is incubated with a sample of a tissue preparation enriched in a particular receptor or transporter or with a preparation of cells expressing cloned human receptors in a buffered medium. During the incubation, the radioligand binds to the receptor or transporter. When equilibrium of binding is reached, the receptor bound radioactivity is separated from the non-bound radioactivity, and the receptor- or transporter-bound activity is counted. The interaction of the test compounds with the receptor is assessed in competition binding experiments. Various concentrations of the test compound are added to the incubation mixture containing the receptor- or transporter preparation and the radioligand. The test compound in proportion to its binding affinity and its concentration inhibits binding of the radioligand.
Human 5HT1A receptor-transfected L929 cells were collected by scraping into ice-cold Tris-HCl buffer (50 mM, pH 7.4). The suspension was centrifuged (23 500×g, 10 min, 4° C.) and pellets stored at −70° C. until required. They were then thawed and briefly homogenised using an Ultra-Turrax T25 homogeniser prior to dilution to an appropriate protein concentration optimised for specific and non-specific binding. [^3H]80HDPAT (NEN, specific activity 127 Ci/mmol) was diluted in Tris-HCl assay buffer containing CaCl2 (50 mM and 4 mM, respectively; pH 7.7) at a concentration of 5 nmol/L. Prepared radioligand (50 μl) was then incubated (30 min, 37° C.) with membrane preparations from L929 cells stably-transfected with the h5HT1A gene construct (400 μl) and with 50 μl of either the 10% DMSO control, spiroxatrine (10^−6 mol/L final concentration), or compound of interest. Membrane-bound activity was detected by filtration through a Packard Filtermate harvester onto Unifilterplates, washing with ice-cold Tris-HCl buffer (3×4 ml), followed by drying. Scintillation fluid was added and membranes were counted in a Topcount scintillation counter. % Specific bound and competition binding curves were calculated using S-Plus software (Insightful).

[1] = target: T2, Human Dopamine D2L receptor (Homo sapiens, UniProt P14416); experiment: Binding experiment for dopamine D2 receptor ([3H]Spiperone); conditions: D2L-transfected CHO cell membranes; for IC50: read-out: pIC50 D2 (converted)
T2 construct: expressed in transfected cells; host or cells: CHO cells
Method: as §1
Human Dopamine D2L receptor-transfected CHO cells were collected by scraping into ice-cold Tris-HCl buffer (50 mM, pH 7.4). The suspension was centrifuged (23 500×g, 10 min, 4° C.) and pellets stored at −70° C. until required. They were then thawed and briefly homogenised using an Ultra-Turrax T25 homogeniser prior to dilution to an appropriate protein concentration optimised for specific and non-specific binding. [^3H]Spiperone (NEN, specific activity ˜70 Ci/mmol) was diluted in Tris-HCl assay buffer containing NaCl, CaCl2, MgCl2, KCl (50, 120, 2, 1, and 5 mM respectively, adjusted to pH 7.7 with HCl) at a concentration of 2 nmol/L. Prepared radioligand (50 μl) was then incubated (30 min, 37° C.) with membrane preparations pre-diluted to an appropriate protein concentration (400 μl), and with 50 μl of either the 10% DMSO control, Butaclamol (10^−6 mol/L final concentration), or compound of interest. Membrane-bound activity was detected by filtration through a Packard Filtermate harvester onto Unifilterplates, washing with ice-cold Tris-HCl buffer (50 mM; pH8.0; 3×4 ml). Filters were allowed to dry before adding scintillation fluid and counting in a Topcount scintillation counter. % Specific bound and competition binding curves were calculated using S-Plus software (Insightful).

[2] = target: T3, Human Dopamine D3 receptor (Homo sapiens, UniProt P35462); experiment: Binding experiment for dopamine D3 receptor ([125I]Iodosulpride); conditions: transfected CHO cell membranes; for IC50: read-out: pIC50 D3 (converted)
T3 construct: expressed in transfected cells; host or cells: CHO cells
Method: as §1
Human Dopamine D3 receptor-transfected CHO cells were collected by scraping into ice-cold Tris-HCl buffer (50 mM, pH 7.4). The suspension was centrifuged (23 500×g, 10 min, 4° C.) and pellets stored at −70° C. until required. They were then thawed and briefly homogenised using an Ultra-Turrax T25 homogeniser prior to dilution to an appropriate protein concentration optimised for specific and non-specific binding. [^125I]Iodosulpride (Amersham, specific activity 2000 Ci/mmol) was diluted in Tris-HCl assay buffer containing NaCl, CaCl2, MgCl2, KCl and BSA (50, 120, 2, 1, 5 mM, 0.1% respectively, adjusted to pH 7.7 with HCl) at a concentration of 2 nmol/L. Prepared radioligand (20 μl) was incubated (60 min, RT) and with 20 μl of either the 10% DMSO control, Risperidone (10^−6 mol/L final concentration), or compound of interest, then with membrane preparations (80 μl). Overnight incubation followed after addition of WGA-coated PVT SPA beads (250 μl; Amersham) and membrane-bound counts measured in a Wallac Microbeta. % Specific bound and competition binding curves were calculated using S-Plus software (Insightful).

human 5HT transporter = target: T4, human 5HT transporter (Homo sapiens, UniProt P31645); experiment: Binding experiment for 5-HT transporter ([3H]Paroxetine); conditions: transfected HEK cell membranes, [3H]Paroxetine; for IC50: read-out: pIC50 5HTT (converted)
T4 construct: host or cells: HEK cells
Method: as §1
Frozen human 5HT transporter-transfected HEK cells (Perkin Elmer, Brussels) were thawed and briefly homogenised using an Ultra-Turrax T25 homogeniser prior to dilution to an appropriate protein concentration optimised for specific and non-specific binding. [^3H]Paroxetine (NEN, specific activity 20 Ci/mmol) was diluted in Tris-HCl assay buffer containing NaCl and KCl (50 mM, 120 mM and 5 mM, respectively; pH 7.4) at a concentration of 5 nmol/L. Prepared radioligand (25 μl) was then incubated (60 min, 25° C.) with membrane preparations (200 μl) and with 25 μl of either 10% DMSO control, Inipramine (10^−6 mol/L final concentration), or compound of interest. Membrane-bound activity was detected by filtration through a Packard Filtermate harvester onto Unifilterplates pre-soaked in 0.1% PEI, washing with ice-cold assay buffer (3×4 ml). Filters were dried prior to addition of scintillation fluid and then counting in a Topcount scintillation counter. % Specific bound and competition binding curves were calculated using S-Plus software (Insightful).

T4 sequence (P31645 whole entry): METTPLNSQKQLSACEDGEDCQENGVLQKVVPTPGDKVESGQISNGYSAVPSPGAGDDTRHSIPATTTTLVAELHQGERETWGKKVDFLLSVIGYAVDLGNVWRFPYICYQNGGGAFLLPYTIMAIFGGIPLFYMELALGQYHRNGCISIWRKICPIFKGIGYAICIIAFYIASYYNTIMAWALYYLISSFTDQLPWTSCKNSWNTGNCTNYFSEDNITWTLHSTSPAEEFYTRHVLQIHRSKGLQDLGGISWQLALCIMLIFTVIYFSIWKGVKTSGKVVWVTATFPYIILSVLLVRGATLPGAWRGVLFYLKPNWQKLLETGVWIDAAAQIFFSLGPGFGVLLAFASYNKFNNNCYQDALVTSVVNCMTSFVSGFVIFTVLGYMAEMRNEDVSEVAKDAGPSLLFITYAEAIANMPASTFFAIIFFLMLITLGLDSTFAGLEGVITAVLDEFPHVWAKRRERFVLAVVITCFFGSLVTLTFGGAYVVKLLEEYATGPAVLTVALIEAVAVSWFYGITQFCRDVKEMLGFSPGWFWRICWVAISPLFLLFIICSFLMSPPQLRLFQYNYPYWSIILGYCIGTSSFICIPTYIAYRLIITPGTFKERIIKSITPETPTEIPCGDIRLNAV
T2 sequence (P14416 whole entry): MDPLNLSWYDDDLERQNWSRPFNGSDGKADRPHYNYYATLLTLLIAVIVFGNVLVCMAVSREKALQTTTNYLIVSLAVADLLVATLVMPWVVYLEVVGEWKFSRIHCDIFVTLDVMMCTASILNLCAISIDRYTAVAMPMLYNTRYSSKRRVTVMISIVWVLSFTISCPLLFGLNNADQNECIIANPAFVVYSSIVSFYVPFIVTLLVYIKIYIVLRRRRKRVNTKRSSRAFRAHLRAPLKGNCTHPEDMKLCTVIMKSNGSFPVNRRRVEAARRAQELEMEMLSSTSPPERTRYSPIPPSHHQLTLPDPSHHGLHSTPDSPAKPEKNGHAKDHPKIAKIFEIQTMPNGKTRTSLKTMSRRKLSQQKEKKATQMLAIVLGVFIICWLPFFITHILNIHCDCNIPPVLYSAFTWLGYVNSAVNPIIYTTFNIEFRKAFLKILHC
T3 sequence (P35462 whole entry): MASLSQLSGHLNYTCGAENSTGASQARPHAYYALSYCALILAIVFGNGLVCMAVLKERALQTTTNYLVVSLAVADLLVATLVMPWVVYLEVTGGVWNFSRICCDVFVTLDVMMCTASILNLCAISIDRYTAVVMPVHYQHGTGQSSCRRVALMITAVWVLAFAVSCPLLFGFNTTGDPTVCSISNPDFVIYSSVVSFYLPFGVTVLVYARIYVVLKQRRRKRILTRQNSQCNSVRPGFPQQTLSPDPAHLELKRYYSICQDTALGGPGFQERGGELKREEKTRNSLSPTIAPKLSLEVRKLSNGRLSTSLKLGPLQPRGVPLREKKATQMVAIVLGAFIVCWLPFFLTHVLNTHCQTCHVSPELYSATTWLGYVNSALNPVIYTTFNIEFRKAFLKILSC

With `COc1cc2c(cc1OC)C1=NOC(CN3CC=C(c4c[nH]c5ccc(C#N)cc45)CC3)C1CO2` (racemic) [Compound 23] the “pIC50 5-HT1A” value (Human 5HT1A receptor) was 8.2, the “pIC50 D2” value [1] was 6.1 and the “pIC50 D3” value [2] was 6.8. The “pIC50 5HTT” value (human 5HT transporter) was 7.4.
For `COc1cc2c(cc1OC)C1=NOC(CN3CC=C(c4c[nH]c5ccc(Cl)cc45)CC3)C1CO2` (racemic) [Compound 25], the “pIC50 5-HT1A” value (Human 5HT1A receptor) was 8.3, the “pIC50 D2” value [1] was 6.6 and the “pIC50 D3” value [2] was 6.9. The “pIC50 5HTT” value (human 5HT transporter) was 7.1.
Molecule `COc1cc2c(cc1OC)C1=NOC(CN3CCC(c4c[nH]c5ccc(C)cc45)CC3)C1CO2` (racemic) [Compound 31] has an IC50 (Human 5HT1A receptor) of 3.16 nM, an IC50 [1] of 398 nM and an IC50 [2] of 398 nM. For the same molecule, the IC50 (human 5HT transporter) was 200 nM.
For `COc1cc2c(cc1OC)C1=NOC(CN3CC=C(c4c[nH]c5cccc(F)c45)CC3)C1CO2` (single isomer, unassigned) [Compound 16], the “pIC50 5-HT1A” value (Human 5HT1A receptor) was 7.1, the “pIC50 D2” value [1] was 6.0 and the “pIC50 D3” value [2] was 6.5. For the same molecule, the “pIC50 5HTT” value (human 5HT transporter) was 6.9.
With `COc1cc2c(cc1OC)C1=NOC(CN3CCC(c4c[nH]c5ccc(C#N)cc45)CC3)C1CO2` (racemic) [Compound 24] the “pIC50 5-HT1A” value (Human 5HT1A receptor) was 8.7, the “pIC50 D2” value [1] was 6.4 and the “pIC50 D3” value [2] was 6.9. The “pIC50 5HTT” value (human 5HT transporter) was 7.4.
In the case of `COc1cc2c(cc1OC)C1=NOC(CN3CCC(c4c[nH]c5cc(F)ccc45)CC3)C1CO2` (racemic) [Compound 26], the “pIC50 5-HT1A” value (Human 5HT1A receptor) is reported as 8.2, the “pIC50 D2” value [1] is reported as 7.9 and the “pIC50 D3” value [2] is reported as 6.7. For the same molecule, the “pIC50 5HTT” value (human 5HT transporter) was 7.6.
Work on `COc1cc2c(cc1OC)C1=NOC(CN3CC=C(c4c[nH]c5ccc(-c6ccccc6)cc45)CC3)C1CO2` (racemic) [Compound 22] yielded an IC50 (Human 5HT1A receptor) of 25.1 nM, an IC50 [1] of 3980 nM and an IC50 [2] of 3160 nM. The IC50 (human 5HT transporter) was 2510 nM.
With `COc1cc2c(cc1OC)C1=NOC(CN3CC=C(c4c[nH]c5ccccc45)CC3)C1CO2` (single isomer, unassigned) [Compound 6] the “pIC50 5-HT1A” value (Human 5HT1A receptor) was 6.6, the “pIC50 D2” value [1] was under 6 and the “pIC50 D3” value [2] was 6.2. The “pIC50 5HTT” value (human 5HT transporter) was 7.1.
`COc1cc2c(cc1OC)C1=NOC(CN3CC=C(c4c[nH]c5cccc(F)c45)CC3)C1CO2` (racemic) [Compound 9] was tested, and the “pIC50 5-HT1A” value (Human 5HT1A receptor) was 8.2, the “pIC50 D2” value [1] was 6.1 and the “pIC50 D3” value [2] was 6.6. For the same molecule, the “pIC50 5HTT” value (human 5HT transporter) was 7.5.
`COc1cc2c(cc1OC)C1=NOC(CN3CC=C(c4c[nH]c5ccc([N+](=O)[O-])cc45)CC3)C1CO2` (racemic) [Compound 19] was tested, and the “pIC50 5-HT1A” value (Human 5HT1A receptor) was 8.1, the “pIC50 D2” value [1] was 6.1 and the “pIC50 D3” value [2] was 6.5. The “pIC50 5HTT” value (human 5HT transporter) was 7.1.
For `COc1cc2c(cc1OC)C1=NOC(CN3CCC(c4c[nH]c5ccc(F)cc45)CC3)C1CO2` (single isomer, unassigned) [Compound 15], the “pIC50 5-HT1A” value (Human 5HT1A receptor) was 7.2, the “pIC50 D2” value [1] was 6.1 and the “pIC50 D3” value [2] was 6.4. The “pIC50 5HTT” value (human 5HT transporter) was 7.1.
